Laboratory results taken from article PMC9785202, “Changes in Disposition of Ezetimibe and Its Active Metabolites Induced by Impaired Hepatic Function: The Influence of Enzyme and Transporter Activities” (Pharmaceutics, 2022).

Assays:
[1] = set-up: method as in PMID 11901097; conditions: cited from earlier work
liver slices = experiment: Uptake of EZE-Ph in liver slices of control and CCl4-induced rats; type: in vitro ADME, rat; conditions: 10 μM EZE-Ph, 10 min
Procedure: Liver slices were prepared as previously described elsewhere. Rats were anesthetized and sacrificed via exsanguination from the abdominal aorta, and the livers were excised. Liver cylindrical cores of an 8 mm diameter were made before slicing. Liver slices with a thickness of 300 μm were obtained using a Krumdieck tissue slicer MD6000 (TSE systems, Chesterfield, MO) with ice-cold and carbogen-saturated Krebs–Henseleit buffer.
After 5 min of preincubation at 4 and 37 °C, the liver slices were transferred to 24-well plates containing 500 μL of buffer with 10 μM EZE-Ph for 10 min. After incubation, the liver slices were washed 3 times with ice-cold HBSS and dried on filter paper. Each liver slice was homogenized with 200 μL of purified water and the protein content was determined using a BCA protein assay kit. The concentration of EZE-Ph was determined using LC-MS/MS.

OATP1B1 = molecular target: T1, OATP1B1 (Homo sapiens, UniProt Q9Y6L6); experiment: Uptake of EZE-Ph into OATP1B1-transfected HEK293 cells; type: in vitro ADME
T1 construct: host or cells: HEK293
T1 sequence (Q9Y6L6 1-691): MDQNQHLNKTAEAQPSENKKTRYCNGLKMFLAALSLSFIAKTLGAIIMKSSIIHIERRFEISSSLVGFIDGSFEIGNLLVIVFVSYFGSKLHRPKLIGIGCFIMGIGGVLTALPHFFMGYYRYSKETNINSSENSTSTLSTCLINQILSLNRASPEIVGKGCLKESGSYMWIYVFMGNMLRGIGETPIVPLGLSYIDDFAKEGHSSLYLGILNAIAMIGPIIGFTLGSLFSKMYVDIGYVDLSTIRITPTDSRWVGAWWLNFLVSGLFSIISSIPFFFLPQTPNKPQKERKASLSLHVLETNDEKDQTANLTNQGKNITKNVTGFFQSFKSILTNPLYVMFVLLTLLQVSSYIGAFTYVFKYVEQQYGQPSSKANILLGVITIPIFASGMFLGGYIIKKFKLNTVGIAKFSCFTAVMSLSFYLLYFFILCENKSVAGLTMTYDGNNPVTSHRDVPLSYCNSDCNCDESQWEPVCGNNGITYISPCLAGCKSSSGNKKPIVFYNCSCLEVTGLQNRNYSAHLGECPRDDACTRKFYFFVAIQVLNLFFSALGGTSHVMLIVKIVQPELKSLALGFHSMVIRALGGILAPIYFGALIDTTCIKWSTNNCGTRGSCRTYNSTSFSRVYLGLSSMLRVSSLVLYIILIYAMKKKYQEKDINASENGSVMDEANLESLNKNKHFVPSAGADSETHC
Procedure: (§1) The kinetic parameters and the half inhibitory concentration (IC50) were calculated using GraphPad Prism. […] The intrinsic clearance (CLint) was calculated as CLint = Vmax/Km.

OAT3 = molecular target: T2, OAT3 (Homo sapiens, UniProt Q8TCC7); experiment: Uptake of EZE-Ph into OAT3-transfected HEK293 cells; type: in vitro ADME
T2 construct: host or cells: HEK293
T2 sequence (Q8TCC7 1-542): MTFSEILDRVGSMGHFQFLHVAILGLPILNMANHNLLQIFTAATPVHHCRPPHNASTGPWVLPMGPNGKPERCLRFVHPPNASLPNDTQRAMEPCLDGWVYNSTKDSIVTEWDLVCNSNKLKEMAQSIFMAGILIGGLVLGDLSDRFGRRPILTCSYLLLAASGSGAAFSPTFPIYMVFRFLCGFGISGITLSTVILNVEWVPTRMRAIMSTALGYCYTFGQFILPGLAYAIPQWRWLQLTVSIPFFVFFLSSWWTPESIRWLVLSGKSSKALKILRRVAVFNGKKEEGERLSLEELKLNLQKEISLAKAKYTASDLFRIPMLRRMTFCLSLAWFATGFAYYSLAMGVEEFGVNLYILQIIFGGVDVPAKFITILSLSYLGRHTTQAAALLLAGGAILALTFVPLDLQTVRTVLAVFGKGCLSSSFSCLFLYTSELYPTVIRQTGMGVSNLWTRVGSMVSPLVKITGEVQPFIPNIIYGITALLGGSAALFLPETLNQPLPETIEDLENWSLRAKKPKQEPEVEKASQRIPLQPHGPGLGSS
Procedure: as §1

OAT1 = experiment: Uptake of EZE-Ph into OAT1-transfected HEK293 cells; type: in vitro ADME, human; conditions: 10 μM EZE-Ph
Procedure: (§2) Human OATP1B1-, OATP1B3-, OATP2B1-, OAT1-, OAT3-, or OCT2-transfected HEK293 cells and vector-transfected control cells (mock) were constructed at HD Biosciences Co., Ltd. (Shanghai, China). The functions of these transporters were evaluated using relevant positive substrates and inhibitors. Estradiol-17β-glucuronide (5 μM, OATP1B1 and OATP1B3), estrone 3-sulfate sodium salt (E3S, 5 μM, OATP2B1), para-aminohippuric acid (PAH, 20 μM, OAT1), furosemide (5 μM, OAT3), and 1-methyl-4-phenyl pyridinium (MPP^+, 5 μM, OCT2) were used as substrates for the transporters. […] The cells (50,000 per well) were cultured in Dulbecco’s modified Eagle’s medium (containing 10% fetal bovine serum, 1% GlutaMAX-I, 1% penicillin G/streptomycin, and 1% nonessential amino acids) on poly-D-lysine-coated 96-well plates at 37 °C in an atmosphere of 5% CO2.
(§3) The cells were rinsed three times with HBSS (37 °C) and then equilibrated in HBSS for 10 min. […] The protein content was measured using a BCA protein assay kit. The concentrations of EZE and EZE-Ph were determined using LC-MS/MS.
(§4) The rates of substrate uptake were normalized using the protein contents of cell lysates. The net uptake via transporters was calculated by subtracting the uptake in vector-transfected HEK293 cells (or uptake into hepatocytes at 4 °C) from that in transporter-transfected HEK293 cells (or uptake into hepatocytes at 37 °C).

OCT2 = experiment: Uptake of EZE-Ph into OCT2-transfected HEK293 cells; type: in vitro ADME, human; conditions: 10 μM EZE-Ph
Procedure: as §2, §3, §4

[2] = set-up: method as in PMID 10780982; conditions: intraduodenal administration of EZE; cited from earlier work
OATP1B3 = molecular target: T3, OATP1B3 (Homo sapiens, UniProt Q9NPD5); experiment: Uptake of EZE-Ph into OATP1B3-transfected HEK293 cells; type: in vitro ADME; set-up: host or cells: HEK293
T3 sequence (Q9NPD5 1-702): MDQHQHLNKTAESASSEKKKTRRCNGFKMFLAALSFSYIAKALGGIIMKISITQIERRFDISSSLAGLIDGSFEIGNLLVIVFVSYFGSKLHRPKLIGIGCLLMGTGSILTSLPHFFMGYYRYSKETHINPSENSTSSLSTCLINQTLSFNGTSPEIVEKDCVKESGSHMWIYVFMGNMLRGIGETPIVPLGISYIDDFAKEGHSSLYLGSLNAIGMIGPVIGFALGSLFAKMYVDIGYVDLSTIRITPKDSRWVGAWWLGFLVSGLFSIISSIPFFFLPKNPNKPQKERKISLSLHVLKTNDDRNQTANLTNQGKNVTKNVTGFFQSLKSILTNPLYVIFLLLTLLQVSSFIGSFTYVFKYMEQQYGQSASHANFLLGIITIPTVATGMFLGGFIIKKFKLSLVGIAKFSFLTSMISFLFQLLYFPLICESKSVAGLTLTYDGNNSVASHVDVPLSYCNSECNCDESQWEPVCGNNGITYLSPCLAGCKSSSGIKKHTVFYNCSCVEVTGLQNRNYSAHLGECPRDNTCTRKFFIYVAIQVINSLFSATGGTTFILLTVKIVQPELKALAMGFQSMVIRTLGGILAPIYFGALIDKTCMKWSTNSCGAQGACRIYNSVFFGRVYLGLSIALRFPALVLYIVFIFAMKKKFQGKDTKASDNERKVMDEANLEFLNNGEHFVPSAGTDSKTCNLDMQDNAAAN
Procedure: as §1

[3] = OATP1B3 HEK293, uptake time 5 min

| EZE-Ph uptake in liver slices, 37 °C vs 4 °C (liver slices) | EZE-Ph uptake in liver slices, control vs CCl4-induced rats (liver slices) | uptake in transporter-transfected cells relative to mock-transfected cells (OATP1B1; 10 μM EZE-Ph, OATP1B1 HEK293) [times] | CLint (OATP1B1; OATP1B1 HEK293, CLint = Vmax/Km) [μL/min/mg Protein] | Kinetic Model (OATP1B1; OATP1B1 HEK293, uptake time 5 min) | uptake in transporter-transfected cells relative to mock-transfected cells (OAT3; 10 μM EZE-Ph, OAT3 HEK293) [times] | CLint (OAT3; OAT3 HEK293, CLint = Vmax/Km) [μL/min/mg Protein] | h (Hill slope) (OAT3; OAT3 HEK293, allosteric sigmoidal model) | Kinetic Model (OAT3; OAT3 HEK293, uptake time 5 min) | uptake in transporter-transfected cells relative to mock-transfected cells (OAT1) | uptake in transporter-transfected cells relative to mock-transfected cells (OCT2) | uptake in transporter-transfected cells relative to mock-transfected cells (OATP1B3; 10 μM EZE-Ph, OATP1B3 HEK293) [times] | CLint (OATP1B3; OATP1B3 HEK293, CLint = Vmax/Km) [μL/min/mg Protein] | Kinetic Model (OATP1B3; [3]) | Vmax (OATP1B3; [3]) [pmol/min/mg Protein] | Km at 5 min (OATP1B3; human, OATP1B3-transfected HEK293 cells, OATP1B3 HEK293, uptake time 5 min) [µM] | Structure (SMILES) | share of the EZE-related material in human plasma [1] | EZE-Ph generated in the intestine [2] [%] |
| --- | --- | --- | --- | --- | --- | --- | --- | --- | --- | --- | --- | --- | --- | --- | --- | --- | --- | --- |
|  |  |  |  |  |  |  |  |  |  |  |  |  |  |  |  | O=C1[C@H](CC[C@H](O)c2ccc(F)cc2)[C@@H](c2ccc(O)cc2)N1c1ccc(F)cc1 [EZE, 1-(4-fluorophenyl)-3(R)-[3-(4-fluorophenyl)-3(S)-hydroxypropyl]-4(S)-(4-hydroxyphenyl)-2-azetidinone, reference compound] | 10–20% |  |
| significantly greater at 37 °C than 4 °C | no significant difference | 5.3 | 0.56 | Substrate inhibition | 8.9 | 1.84 | 1.19 | Allosteric sigmoidal | less than twice | less than twice | 56 | 6.73 | Substrate inhibition | 134 | 19.9 | O=C(O)[C@H]1O[C@@H](Oc2ccc([C@@H]3[C@@H](CC[C@H](O)c4ccc(F)cc4)C(=O)N3c3ccc(F)cc3)cc2)[C@H](O)[C@@H](O)[C@@H]1O [EZE-Ph, ezetimibe phenoxy β-D-glucuronide] |  | > 95 |
